Earlier results on 1 compound are cited in PubChem BioAssay AID1259409 (Chemical Carcinogenesis Research Information System (CCRIS), 2018).

Structures are written as SMILES.

This series has as its system rodent chemically induced tumor inhibition, incidence and multiplicity. Put plainly: CCRIS tumor inhibitor studies.

With `C=CCSCC=C`, the “tumour outcome (control, treated, inhibition, significance)” value is, setting by setting: (Carcinogen: 4-(METHYLNITROSAMINO)-1-(3-PYRIDYL)-1-BUTANONE, 64091-91-4, Dose [Inhibitor]: 0, 200 MG/KG BW IN CORN OIL FOR 3 D PRIOR TO CARCINOGEN TREATMENT (STUDY DURATION: 16 WK), Route [Inhibitor]: ORAL, Species: MOUSE, Strain/Sex: STRAIN-A/FEMALE, Target Tissue: Type of Lesion: LUNG: TUMOR, Dose [Carcinogen]: 100 MG/KG BW ONCE, Promoter: NONE USED) 100%, 38%, 62%, not calculated; (Carcinogen: 4-(METHYLNITROSAMINO)-1-(3-PYRIDYL)-1-BUTANONE, 64091-91-4, Dose [Inhibitor]: 0, 200 MG/KG/BW IN CORN OIL 1/D FOR 3 DAY PRIOR TO CARCINOGEN DOSE (STUDY DURATION: 16 WK), Route [Inhibitor]: ORAL, Species: MOUSE, Strain/Sex: STRAIN-A/FEMALE, Target Tissue: Type of Lesion: LUNG: TUMOR, Dose [Carcinogen]: 2 MG ONCE ADMINISTERED 2 HR POST LAST AGENT DOSE, Promoter: NONE USED) 100%, 38%, 62%, p<0.05; (Carcinogen: 7,12-DIMETHYLBENZ[A]ANTHRACENE, 57-97-6, Dose [Inhibitor]: 0, 1.8 MMOL/KG BW IN CORN OIL 96, 48 AND 24 HR PRIOR TO CARCINOGEN TREATMENT (STUDY DURATION: 25 WK), Route [Inhibitor]: GAVAGE, Species: RAT, Strain/Sex: SPRAGUE-DAWLEY/FEMALE, Target Tissue: Type of Lesion: MAMMARY GLAND: ADENOCARCINOMA, Dose [Carcinogen]: 10 MG ONCE, Promoter: NONE USED) 92%, 56%, 39%, p<0.05; (Carcinogen: ARISTOLOCHIC ACID, 313-67-7, Dose [Inhibitor]: 0, 150 MG/KG BW ADMINISTERED 4 HR PRIOR TO EACH CARCINOGEN DOSE 2/WK FOR 12 WK (STUDY DURATION: 46 WK), Route [Inhibitor]: GAVAGE, Species: RAT, Strain/Sex: BD-6/MALE, Target Tissue: Type of Lesion: FORESTOMACH: CARCINOMA OR SARCOMA, Dose [Carcinogen]: 10 MG/KG BW 2/WK FOR 12 WK, Promoter: NONE USED) 9/20 (45%), 2/20 (10%), 78%, p<0.01; (Carcinogen: ARISTOLOCHIC ACID, 313-67-7, Dose [Inhibitor]: 0, 150 MG/KG BW ADMINISTERED 24 AND 4 HR PRIOR TO EACH CARCINOGEN DOSE FOR 12 WK (STUDY DURATION: 46 WK), Route [Inhibitor]: GAVAGE, Species: RAT, Strain/Sex: BD-6/MALE, Target Tissue: Type of Lesion: FORESTOMACH: CARCINOMA OR SARCOMA, Dose [Carcinogen]: 10 MG/KG BW 2/WK FOR 12 WK, Promoter: NONE USED) 11/25 (44%), 0/20 (0%), 100%, p<0.001; (Carcinogen: BENZO[A]PYRENE [50-32-8], Dose [Inhibitor]: 0, 200 MG/KG BW IN TRIOCTANOIN 1 D AND 2 HR PRIOR TO CARCINOGEN DOSE (STUDY DURATION: 21 WK), Route [Inhibitor]: GAVAGE, Species: MOUSE, Strain/Sex: CD-1/FEMALE, Target Tissue: Type of Lesion: SKIN: PAPILLOMA, Dose [Carcinogen]: 0.3 UMOL IN 0.2 ML ACETONE ONCE, Promoter: 12-O-TETRADECANOYLPHORBOL-13-ACETATE [16561-29-8]) 92%, 73%, 21%, not calculated. For the same compound, the “tumour outcome (control, treated, inhibition, significance)” value (Carcinogen: BENZO[A]PYRENE [50-32-8], Dose [Inhibitor]: 200 MG/KG IN 10 µL TRIOCTANOIN ONCE 1 D AND 2 HR PRIOR TO CARCINOGEN DOSE (STUDY DURATION: 21 WK), Route [Inhibitor]: GAVAGE, Species: MOUSE, Strain/Sex: CD-1/FEMALE, Target Tissue: Type of Lesion: SKIN: PAPILLOMA, Dose [Carcinogen]: 0.3 UMOL IN 0.2 ML ACETONE ONCE (STUDY DURATION: 21 WK), Promoter: 12-O-TETRADECANOYLPHORBOL-13-ACETATE [16561-29-8]) is on record as 92%, 74%, 20%, not calculated; the “tumour outcome (control, treated, inhibition, significance)” value (Carcinogen: DIETHYLNITROSAMINE, 55-18-5, Dose [Inhibitor]: 0, 150 MG/KG BW BY INTRAPERITONEAL INJECTION ON DAYS 13, 14 AND 15 OF AGE THEN 1 G/KG DIET FROM 21 TO 161 DAYS OF AGE (S, Route [Inhibitor]: INTRAPERITONEAL, ORAL, Species: MOUSE, Strain/Sex: C3H/MALE, Target Tissue: Type of Lesion: LIVER: ADENOMA, Dose [Carcinogen]: 4 MG/KG IN TRICAPRYLIN ONCE ON DAY 15 OF AGE, Promoter: NONE USED) was 100%, 97%, 3%, not significant; the “tumour outcome (control, treated, inhibition, significance)” value (Carcinogen: DIETHYLNITROSAMINE, 55-18-5, N-METHYL-N-NITROSOUREA, 684-93-5, N,N'-DIMETHYLHYDRAZINE, 540-73-8, N-BUTYL-N-(4-HYDR, Carcinogen: DIETHYLNITROSAMINE, 55-18-5, N-METHYL-N-NITROSOUREA, 684-93-5, N,N'-DIMETHYLHYDRAZINE, 540-73-8, N-BUTYL-N-(4-HYDR, Dose [Inhibitor]: 0, 200 MG/KG BW IN CORN OIL 3/WK FOR 6 WK BEGINNING POST CARCINOGEN TREATMENT (STUDY DURATION: 28 WK), Route [Inhibitor]: GAVAGE, Species: RAT, Strain/Sex: F344/MALE, Target Tissue: Type of Lesion: KIDNEY: RENAL CELL ADENOMA, Dose [Carcinogen]: 100 MG/KG BW DEN ONCE, 20 MG/KG BW MNU ONCE ON D 2, 5, 8 AND 11, 40 MG/KG BW DMH ON D 14, 17, 20 AND 23, 0.05% BHBN I, Dose [Carcinogen]: 100 MG/KG BW DEN ONCE, 20 MG/KG BW MNU ONCE ON D 2, 5, 8 AND 11, 40 MG/KG BW DMH ON D 14, 17, 20 AND 23, 0.05% BHBN I, Promoter: NONE USED) is 4/20 (20%), 4/19 (21%), -5%, not significant; the “tumour outcome (control, treated, inhibition, significance)” value (Carcinogen: DIETHYLNITROSAMINE, 55-18-5, N-METHYL-N-NITROSOUREA, 684-93-5, N,N'-DIMETHYLHYDRAZINE, 540-73-8, N-BUTYL-N-(4-HYDR, Carcinogen: DIETHYLNITROSAMINE, 55-18-5, N-METHYL-N-NITROSOUREA, 684-93-5, N,N'-DIMETHYLHYDRAZINE, 540-73-8, N-BUTYL-N-(4-HYDR, Dose [Inhibitor]: 0, 200 MG/KG BW IN CORN OIL 3/WK FOR 6 WK BEGINNING POST CARCINOGEN TREATMENT (STUDY DURATION: 28 WK), Route [Inhibitor]: GAVAGE, Species: RAT, Strain/Sex: F344/MALE, Target Tissue: Type of Lesion: LARGE INTESTINE: ADENOMA, Dose [Carcinogen]: 100 MG/KG BW DEN ONCE, 20 MG/KG BW MNU ONCE ON D 2, 5, 8 AND 11, 40 MG/KG BW DMH ON D 14, 17, 20 AND 23, 0.05% BHBN I, Dose [Carcinogen]: 100 MG/KG BW DEN ONCE, 20 MG/KG BW MNU ONCE ON D 2, 5, 8 AND 11, 40 MG/KG BW DMH ON D 14, 17, 20 AND 23, 0.05% BHBN I, Promoter: NONE USED) is given as 6/20 (30%), 1/19 (5%), 83%, not calculated; the “tumour outcome (control, treated, inhibition, significance)” value (Carcinogen: DIETHYLNITROSAMINE, 55-18-5, N-METHYL-N-NITROSOUREA, 684-93-5, N,N'-DIMETHYLHYDRAZINE, 540-73-8, N-BUTYL-N-(4-HYDR, Carcinogen: DIETHYLNITROSAMINE, 55-18-5, N-METHYL-N-NITROSOUREA, 684-93-5, N,N'-DIMETHYLHYDRAZINE, 540-73-8, N-BUTYL-N-(4-HYDR, Dose [Inhibitor]: 0, 200 MG/KG BW IN CORN OIL 3/WK FOR 6 WK BEGINNING POST CARCINOGEN TREATMENT (STUDY DURATION: 28 WK), Route [Inhibitor]: GAVAGE, Species: RAT, Strain/Sex: F344/MALE, Target Tissue: Type of Lesion: LARGE INTESTINE: CARCINOMA, Dose [Carcinogen]: 100 MG/KG BW DEN ONCE, 20 MG/KG BW MNU ONCE ON D 2, 5, 8 AND 11, 40 MG/KG BW DMH ON D 14, 17, 20 AND 23, 0.05% BHBN I, Dose [Carcinogen]: 100 MG/KG BW DEN ONCE, 20 MG/KG BW MNU ONCE ON D 2, 5, 8 AND 11, 40 MG/KG BW DMH ON D 14, 17, 20 AND 23, 0.05% BHBN I, Promoter: NONE USED) is given as 8/20 (40%), 7/19 (37%), 8%, not significant; the “tumour outcome (control, treated, inhibition, significance)” value (Carcinogen: DIETHYLNITROSAMINE, 55-18-5, N-METHYL-N-NITROSOUREA, 684-93-5, N,N-DIBUTYLNITROSAMINE, 924-16-3, Carcinogen: DIETHYLNITROSAMINE, 55-18-5, N-METHYL-N-NITROSOUREA, 684-93-5, N,N-DIBUTYLNITROSAMINE, 924-16-3, Dose [Inhibitor]: 0, 0.5% IN DIET BEGINNING POST CARCINOGEN TREATMENT AND CONTINUING TO WK 40 (STUDY DURATION: 40 WK), Route [Inhibitor]: ORAL, Species: RAT, Strain/Sex: F344/MALE, Target Tissue: Type of Lesion: LUNG: ADENOMA, Dose [Carcinogen]: 100 MG/KG DIETHYLNITROSAMINE ONCE FOLLOWED BY 20 MG/KG N-METHYL-N-NITROSOUREA ON D 2, 5, 8 AND 11 THEN 0.05% N-N-DIBUTYL, Promoter: NONE USED) is 9/16 (56%), 2/18 (11%), 80%, p<0.01.
